What was measured:
Format in all cases: cell-based, human
SC6 cells = assay: Growth of SC6 cells in medium with 5-aza-2′-deoxycytidine (cytotoxicity); details: screening medium with 25 μM 5-aza-2′-deoxycytidine
Protocol: Transfection of SC6 cells with me_Trip10 DNA,” of the above Example 4, were plated into each well of 6-well plates (1×10^4 cells/2 mL screening medium/well), followed by cultivation overnight in an incubator (37° C., 95% O2/5% CO2) to permit cell attachment. 10 mM 5-aza-2′-deoxycytidine (dissolved in DMSO) was subsequently added into each well to reach a final concentration of 25 μM (Day 0). Thereafter, medium changes were performed every two days with fresh screening medium supplemented with 25 μM 5-aza-2′-deoxycytidine. From the second time of medium change (Day 4), the screening medium was further supplemented with 10 ng/mL 17β-estradiol. Expression of EGFP in the SC6 cells was observed using an inverted fluorescence microscope prior to making the medium change, and photographs were recorded using a digital camera connected to the inverted fluorescence microscope.

Trip10 promoter [1] = assay: Reactivation of inactivated Trip10 promoter by 5-aza-2′-deoxycytidine and 17β-estradiol (EGFP in SC6 cells); details: me_Trip10 DNA transfected SC6 cells
Protocol: The obtained photographs were analyzed via an image analyzing software Scion Image. Briefly, the photographs were divided into several regions by the Scion Image software, in which the EGFP signal in a region visually observed as a black region was defined as 0, and the EGFP signal in a region that was visually observed to have the strongest fluorescence was defined as 255. Thereafter, the EGFP intensity was obtained by summing up the EGFP signals in all the regions, followed by dividing by the total area of said regions. […] The transfection-treated SC6 cells, which were harvested two days after the third time of transfection according to the procedures set forth in the section, entitled “2. […] From the second time of medium change (Day 4), the screening medium was further supplemented with 10 ng/mL 17β-estradiol. Expression of EGFP in the SC6 cells was observed using an inverted fluorescence microscope prior to making the medium change, and photographs were recorded using a digital camera connected to the inverted fluorescence microscope.

Trip10 promoter [2] = assay: Effect of 17β-estradiol upon the Trip10 promoter against DNA methylation (EGFP in SC6 cells); details: 10 ng/mL 17β-estradiol before; for EGFP intensity compared to 0 hr: during and after transfection with me_Trip10 DNA
Protocol: The obtained photographs were analyzed via an image analyzing software Scion Image. Briefly, the photographs were divided into several regions by the Scion Image software, in which the EGFP signal in a region visually observed as a black region was defined as 0, and the EGFP signal in a region that was visually observed to have the strongest fluorescence was defined as 255. Thereafter, the EGFP intensity was obtained by summing up the EGFP signals in all the regions, followed by dividing by the total area of said regions. Finally, the EGFP intensity at 0 hr was defined as 100%, and the EFGP intensity percentages of the EGFP intensities at other time points relative to that at 0 hr were calculated.
First, a proper amount of 17β-estradiol was dissolved in alcohol to form a stock solution having a concentration of 10 mg/mL. The SC6 cells as obtained in the above Example 3 were plated into each well of 6-well plates (1×10^5 cells/2 mL screening medium/well), followed by cultivation overnight in an incubator (37° C., […]/5% CO2) to permit cell attachment. […] After cultivation at 37° C. for 24 hours, the SC6 cells were transfected with 0.4 μg of single-stranded me_Trip10 DNA according to the transfection treatment as described in the section, entitled “2. Transfection of SC6 cells with me_Trip10 DNA” of the above Example 4, except that the growth medium was supplemented with 10 ng/mL 17β-estradiol and was added into each well until a final volume of 1 mL was reached.
The first time at which the liquid in each well was added to reach 1 mL was defined as Hour 0. Expression of EGFP in the SC6 cells was observed using an inverted fluorescence microscope at 0 hr, 24 hrs, 72 hrs and 120 hrs, respectively, and photographs were recorded using a digital camera connected to the inverted fluorescence microscope.

Row | SMILES | cytotoxicity (SC6 cells) | EGFP intensity compared to Day 2 (100%) (Trip10 promoter [1]; Day 4, 25 μM 5-aza-2′-deoxycytidine alone) | reactivation of the Trip10 promoter / reversal of its methylation (Trip10 promoter [1]) | methylation of Trip10 promoter induced by me_Trip10 DNA (Trip10 promoter [2]; during and after transfection) | EGFP intensity compared to 0 hr (Trip10 promoter [2]; 72 hrs) | EGFP intensity compared to 0 hr (Trip10 promoter [2]; other time points (24 hrs, 120 hrs))
1 | Nc1ncn([C@H]2C[C@H](O)[C@@H](CO)O2)c(=O)n1 [5-aza-2′-deoxycytidine] | no cytotoxicity | over 100% | insufficient to reactivate the Trip10 promoter |  |  | 
2 | C[C@]12CC[C@@H]3c4ccc(O)cc4CC[C@H]3[C@@H]1CC[C@@H]2O [17β-estradiol] |  |  |  | could be prevented from methylation | about 150% | around 100%
